Measured values from patent US8269000B2, “Substituted pyrimidine and triazine compounds” (Gruenenthal GmbH, priority 2008, dated 2012).

Target: T1, rat B1R (Rattus norvegicus, UniProt P97583)
T1 construct: expressed in transfected cells; host or cells: CHO K1 cells
T1 sequence (P97583 1-337): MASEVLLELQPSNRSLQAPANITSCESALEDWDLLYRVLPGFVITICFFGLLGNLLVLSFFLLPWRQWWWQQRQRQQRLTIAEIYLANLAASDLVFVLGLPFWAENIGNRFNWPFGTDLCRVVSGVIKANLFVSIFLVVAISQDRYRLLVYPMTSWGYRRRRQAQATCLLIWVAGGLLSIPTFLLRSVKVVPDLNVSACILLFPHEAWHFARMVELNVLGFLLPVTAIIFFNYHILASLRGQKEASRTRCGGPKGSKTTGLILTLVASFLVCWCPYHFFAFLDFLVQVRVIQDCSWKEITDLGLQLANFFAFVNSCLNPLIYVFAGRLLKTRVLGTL
Assay: FLIPR Ca2+ functional study on bradykinin receptor 1 (rB1R CHO K1 cells)
Format: cell-based
Conditions: CHO-K1, % inhibition rat B1R at 10 μM, read-out: % inh. (rat B1R) 10 μM
Method in brief: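 Antagonism was calculated as % of maximal inhibition of the Ca2+ rise triggered by agonist at EC80 (Lys-Des-Arg9-bradykinin for hB1R, Des-Arg9-bradykinin for rB1R), added 10-20 min after test compound (10 μM or serial dilutions for IC50) to Fluo-4-loaded transfected CHO K1 cells on FLIPR. Duplicates or triplicates, ≥2 independent runs.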

## COc1cc(C)c(S(=O)(=O)N2CC(Oc3ccnc(N4CCCN(Cc5ccccn5)CC4)n3)C2)c(C)c1 [H_CC-077, 1-[4-[1-[(4-methoxy-2,6-dimethyl-phenyl)sulfonyl]-azetidin-3-yl]oxy-pyrimidin-2-yl]-4-(pyridin-2-yl-methyl)-[1,4]diazepan]
  inhibition at 10 µM: 58%
